Data reported in patent publication US10994015B2, “EGFR proteolysis targeting chimeric molecules and associated methods of use” (Arvinas Operations, Inc., priority 2016, dated 2021).

Experiments:
[1] = target: EGFR L858R/T790M (Homo sapiens (Human), UniProt P00533, L858R/T790M); assay: TR-FRET assay for ERBB kinases; assay type: biochemical; conditions: geometric mean if measured more than once
Outline: (§1)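 Three-fold DMSO dilution series of each compound is diluted 10-fold into HEPES buffer (pH 7.5, NaCl, MgCl2, DTT, Pluronic). Enzyme is added for a 10 min pre-incubation. ATP/peptide mix (3 mM ATP, 30 uM substrate as added) starts a 10 min room-temperature reaction, halted with EDTA and Tb antibody.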

[2] = target: EGFR L858R/T790M/C797S (Homo sapiens (Human), UniProt P00533, C797S/L858R/T790M); assay: TR-FRET assay for ERBB kinases; assay type: biochemical; conditions: geometric mean if measured more than once
Outline: as §1

[3] = target: EGFR WT (Homo sapiens (Human), UniProt P00533); assay: TR-FRET assay for ERBB kinases; assay type: biochemical; conditions: geometric mean if measured more than once
Outline: as §1

[4] = target: EGFR Exon20NPG (Homo sapiens (Human), UniProt P00533, INS770NPG); assay: TR-FRET assay for ERBB kinases; assay type: biochemical; conditions: geometric mean if measured more than once
Outline: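 Phosphorylation of fluorescein-labeled poly-GluTyr read as TR-FRET using Tb-pY20 antibody after EDTA stop, with 340 nm excitation. Kinase reaction ran 10 min at room temperature following 10 min compound pre-incubation; substrate mix held 3 mM ATP and 30 µM peptide before addition. Buffer was HEPES pH 7.5.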

[5] = target: EGFR L858R/T790M double mutant (H1975) (Homo sapiens (Human), UniProt P00533, L858R/T790M); assay: EGFR protein degradation assay (Western blot); assay type: cell-based; conditions: 72 hours, 300 nM to 10 nM
Outline: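 EGFR protein levels were measured by immunoblotting. Lysate protein was quantified by BCA, and 10 μg per sample was separated by SDS/PAGE at 165V for 2 hours and transferred to PVDF. Membranes were blocked in TBS-T with 5% milk for 1 hour, probed overnight at 4° C with EGFR and tubulin antibodies, then secondary antibody for 1 hour, and detected by ECL on a Chemidoc.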

[6] = target: EGFR L858R/T790M/C797S triple mutant (H520*) (Homo sapiens (Human), UniProt P00533, C797S/L858R/T790M); assay: EGFR protein degradation assay (Western blot); assay type: cell-based; conditions: 72 hours, 300 nM to 10 nM
Description: EGFR Protein Degradation assay
Cells were incubated overnight at 37° C., 5% CO2 prior to compound addition. A 10 mM compound stock in DMSO was serially diluted in DMSO to provide the following stock concentrations: 1, 0.3, 0.1, 0.03 and 0.01 mM. An appropriate volume of each compound dilution, together with a DMSO vehicle control, was added to media to provide a 2× compound solution. […] At the end of the compound treatment, cells were washed once with ice-cold phosphate-buffered saline (PBS) and treated with lysis solution (1× lysis buffer, Cell Signaling Technologies (CST #9803) supplemented with Piarce™ protease inhibitors, #A32953, Thermo Fisher Scientific, TFS). Lysates were collected and clarified of cell debris by spinning at 10K rpm for 10 minutes. A specific volume of supernatant was retrieved for protein quantification (Pierce™ BCA kit, TFS #23225) and for Western analysis. Loading buffer supplemented with EDTA and reducing agent was added to each supernatant. A specific volume of supernatant (determined by protein assay: […] loaded per sample) was loaded into a NuPAGE™ 4-12% Bis-Tris gel (TFS). Samples were run at 165V in MOPS running buffer for 2 hours and then transferred to PVDF blotting membrane using a dry blotting system (iBlot2, TFS). Membranes were blocked in Tris-buffered saline supplemented with Tween, 0.1% (TBST) containing 5% non-fat dry milk, (AmericanBio). Following block, membranes were washed once with TBST. […] Membranes were washed 3× with TBST prior to addition of secondary antibody (1:10 000, anti-rabbit HRP-linked, CST #7074) in TBST with 3% BSA and then incubated at room temperature for one hour. Membranes were then washed 3× with TBS and signal developed by exposure to developer (SuperSignal West Femto, TFS) for 5 minutes. Membranes were then immediately imaged using a BioRad Chemidoc.

Sequence of EGFR Exon20NPG (P00533 other isoform, or with tags, fused parts or gaps del 1-694/ins NPG behind 770 limits assumed): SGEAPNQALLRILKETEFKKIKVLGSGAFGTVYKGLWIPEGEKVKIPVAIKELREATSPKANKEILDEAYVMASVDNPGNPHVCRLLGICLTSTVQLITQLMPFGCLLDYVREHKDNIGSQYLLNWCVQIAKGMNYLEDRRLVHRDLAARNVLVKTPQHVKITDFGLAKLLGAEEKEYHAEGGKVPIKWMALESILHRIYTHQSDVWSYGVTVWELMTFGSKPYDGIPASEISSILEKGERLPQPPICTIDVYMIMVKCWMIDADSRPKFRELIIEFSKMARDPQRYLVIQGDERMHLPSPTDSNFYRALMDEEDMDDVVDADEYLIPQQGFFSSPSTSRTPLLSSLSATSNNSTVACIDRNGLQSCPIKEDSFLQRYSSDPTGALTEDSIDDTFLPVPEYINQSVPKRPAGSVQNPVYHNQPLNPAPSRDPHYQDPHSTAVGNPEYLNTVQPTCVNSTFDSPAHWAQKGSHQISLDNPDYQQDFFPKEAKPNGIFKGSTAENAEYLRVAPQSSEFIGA
Sequence of EGFR L858R/T790M (P00533 25-1210 T790M/L858R): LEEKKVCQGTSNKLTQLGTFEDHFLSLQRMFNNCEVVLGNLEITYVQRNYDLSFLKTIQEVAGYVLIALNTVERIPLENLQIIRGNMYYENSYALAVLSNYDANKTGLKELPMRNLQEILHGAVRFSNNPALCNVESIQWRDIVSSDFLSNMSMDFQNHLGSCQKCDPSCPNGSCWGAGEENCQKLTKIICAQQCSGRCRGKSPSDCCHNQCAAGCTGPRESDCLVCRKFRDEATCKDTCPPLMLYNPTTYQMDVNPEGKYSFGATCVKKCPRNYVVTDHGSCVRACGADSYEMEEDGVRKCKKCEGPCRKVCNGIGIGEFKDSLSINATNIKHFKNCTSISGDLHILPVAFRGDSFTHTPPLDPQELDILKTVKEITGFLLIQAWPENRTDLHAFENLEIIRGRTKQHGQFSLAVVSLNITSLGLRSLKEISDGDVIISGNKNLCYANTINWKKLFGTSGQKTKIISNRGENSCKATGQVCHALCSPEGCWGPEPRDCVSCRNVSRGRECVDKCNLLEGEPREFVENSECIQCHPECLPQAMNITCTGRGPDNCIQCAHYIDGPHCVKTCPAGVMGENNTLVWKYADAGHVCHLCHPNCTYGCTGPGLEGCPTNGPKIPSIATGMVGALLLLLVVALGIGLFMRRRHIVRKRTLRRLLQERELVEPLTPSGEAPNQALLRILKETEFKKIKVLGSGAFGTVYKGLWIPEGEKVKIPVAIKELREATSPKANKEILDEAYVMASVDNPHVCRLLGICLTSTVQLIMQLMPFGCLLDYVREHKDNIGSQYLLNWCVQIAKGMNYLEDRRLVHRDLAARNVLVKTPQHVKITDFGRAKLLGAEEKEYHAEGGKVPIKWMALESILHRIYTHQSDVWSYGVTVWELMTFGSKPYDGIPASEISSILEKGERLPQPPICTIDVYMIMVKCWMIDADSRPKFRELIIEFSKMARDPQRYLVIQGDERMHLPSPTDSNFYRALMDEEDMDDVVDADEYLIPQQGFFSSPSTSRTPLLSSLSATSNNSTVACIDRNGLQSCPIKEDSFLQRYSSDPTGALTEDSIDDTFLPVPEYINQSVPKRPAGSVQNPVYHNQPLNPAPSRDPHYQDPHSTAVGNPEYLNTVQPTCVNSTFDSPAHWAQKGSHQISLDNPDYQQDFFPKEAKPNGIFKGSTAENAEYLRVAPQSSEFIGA
Sequence of EGFR L858R/T790M double mutant (H1975) (P00533 25-1210 T790M/L858R): as above
Sequence of EGFR WT (P00533 25-1210): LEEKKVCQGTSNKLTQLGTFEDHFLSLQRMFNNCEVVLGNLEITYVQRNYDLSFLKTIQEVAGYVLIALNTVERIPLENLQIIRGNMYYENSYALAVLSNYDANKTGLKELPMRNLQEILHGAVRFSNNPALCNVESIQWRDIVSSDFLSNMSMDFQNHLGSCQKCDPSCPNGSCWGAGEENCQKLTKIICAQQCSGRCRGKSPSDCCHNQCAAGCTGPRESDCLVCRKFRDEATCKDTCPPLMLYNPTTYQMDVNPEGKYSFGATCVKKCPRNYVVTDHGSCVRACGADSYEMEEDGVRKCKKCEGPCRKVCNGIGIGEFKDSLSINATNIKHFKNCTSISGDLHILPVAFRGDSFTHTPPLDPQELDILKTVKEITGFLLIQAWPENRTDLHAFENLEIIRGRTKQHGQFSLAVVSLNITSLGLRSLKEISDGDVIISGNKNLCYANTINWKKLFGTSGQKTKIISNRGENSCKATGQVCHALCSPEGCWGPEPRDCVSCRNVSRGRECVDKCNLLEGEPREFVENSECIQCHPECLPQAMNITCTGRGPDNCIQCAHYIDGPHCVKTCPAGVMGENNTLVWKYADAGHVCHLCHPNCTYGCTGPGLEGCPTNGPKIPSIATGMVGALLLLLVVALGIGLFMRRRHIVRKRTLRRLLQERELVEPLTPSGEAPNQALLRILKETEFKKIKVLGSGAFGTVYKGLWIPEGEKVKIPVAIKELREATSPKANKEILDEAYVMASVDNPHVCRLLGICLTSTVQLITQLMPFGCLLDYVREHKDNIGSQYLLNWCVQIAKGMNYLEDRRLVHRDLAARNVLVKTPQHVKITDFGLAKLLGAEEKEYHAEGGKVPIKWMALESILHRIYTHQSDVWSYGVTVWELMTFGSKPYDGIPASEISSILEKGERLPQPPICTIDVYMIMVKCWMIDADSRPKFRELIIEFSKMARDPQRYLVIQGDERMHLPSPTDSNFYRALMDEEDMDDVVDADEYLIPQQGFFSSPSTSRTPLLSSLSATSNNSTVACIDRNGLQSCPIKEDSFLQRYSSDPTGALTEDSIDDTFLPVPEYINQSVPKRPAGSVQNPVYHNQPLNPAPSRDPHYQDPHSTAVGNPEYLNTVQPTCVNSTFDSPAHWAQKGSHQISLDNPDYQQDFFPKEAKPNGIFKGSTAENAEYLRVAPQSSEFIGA

Row | SMILES | IC50 [1] | IC50 [2] | IC50 [3] | IC50 [4] | EGFR protein remaining, EGFR L858R/T790M double mutant [5] | EGFR protein remaining, EGFR L858R/T790M/C797S triple mutant [6]
1 | Cc1ncsc1-c1ccc(CNC(=O)[C@@H]2C[C@@H](O)CN2C(=O)[C@@H](NC(=O)COCCOCCOCCOCC#Cc2cccc3c2C(=O)N(C(C(=O)Nc2nccs2)c2cc(F)ccc2O)C3)C(C)(C)C)cc1 (stereo partly drawn) [compound 254] | 1 µM | 0.1 µM | 1.1 µM | 5.7 µM | C (>80% EGFR protein remaining after 72 hours of incubation with the test compound at a concentration of 300 nM) | C (>80% EGFR protein remaining after 72 hours of incubation with the test compound at a concentration of 300 nM)
2 | Cc1ncsc1-c1ccc(CNC(=O)[C@@H]2C[C@@H](O)CN2C(=O)[C@H](C(C)C)N2Cc3ccccc3C2=O)c(OCCOCCOCC#Cc2cccc3c2C(=O)N([C@@H](C(=O)Nc2nccs2)c2cc(F)ccc2O)C3)c1 (single isomer, unassigned) [Example 257] | > 30 µM | 2.7 µM | 5.7 µM | > 30 µM | C (>80% EGFR protein remaining after 72 hours of incubation with the test compound at a concentration of 300 nM) | C (>80% EGFR protein remaining after 72 hours of incubation with the test compound at a concentration of 300 nM)
3 | Cc1ncsc1-c1ccc(CNC(=O)[C@@H]2C[C@@H](O)CN2C(=O)[C@H](C(C)C)N2Cc3ccccc3C2=O)c(OCCOCCOCC#Cc2cccc3c2C(=O)N([C@@H](C(=O)Nc2nccs2)c2cc(F)ccc2O)C3)c1 (single isomer, unassigned) [Example 256] | 14 µM | 1.4 µM | 2.5 µM | 6.1 µM | C (>80% EGFR protein remaining after 72 hours of incubation with the test compound at a concentration of 300 nM) | C (>80% EGFR protein remaining after 72 hours of incubation with the test compound at a concentration of 300 nM)
4 | O=C1CCC(N2C(=O)c3ccc(OCCOCCOCCOCCOCC#Cc4cccc5c4C(=O)N([C@@H](C(=O)Nc4nccs4)c4cc(F)ccc4O)C5)cc3C2=O)C(=O)N1 (stereo partly drawn) [compound 262] | 0.43 µM | 0.25 µM | 3.7 µM | 7.4 µM | C (>80% EGFR protein remaining after 72 hours of incubation with the test compound at a concentration of 300 nM) | C (>80% EGFR protein remaining after 72 hours of incubation with the test compound at a concentration of 300 nM)
5 | O=C1CCC(N2C(=O)c3ccc(OCCOCCOCC#Cc4cccc5c4C(=O)N([C@@H](C(=O)Nc4nccs4)c4cc(F)ccc4O)C5)cc3C2=O)C(=O)N1 (stereo partly drawn) [compound 261] | 3.5 µM | 0.18 µM | 2.2 µM | 4.9 µM | C (>80% EGFR protein remaining after 72 hours of incubation with the test compound at a concentration of 300 nM) | C (>80% EGFR protein remaining after 72 hours of incubation with the test compound at a concentration of 300 nM)
6 | Cc1ncsc1-c1ccc(CNC(=O)[C@@H]2C[C@@H](O)CN2C(=O)[C@H](C(C)C)N2Cc3ccccc3C2=O)c(OCCOCCOCCOCCOCCOCC#Cc2cccc3c2C(=O)N([C@@H](C(=O)Nc2nccs2)c2cc(F)ccc2O)C3)c1 [compound 260] | 20 µM | 0.56 µM | 3.2 µM | > 30 µM | C (>80% EGFR protein remaining after 72 hours of incubation with the test compound at a concentration of 300 nM) | C (>80% EGFR protein remaining after 72 hours of incubation with the test compound at a concentration of 300 nM)
7 | O=C1CCC(N2C(=O)c3ccc(N4CCN(CCCOCCCC#Cc5cccc6c5C(=O)N(C(C(=O)Nc5nccs5)c5cc(F)ccc5O)C6)CC4)cc3C2=O)C(=O)N1 (stereo not drawn) [compound 95] | 6.7 µM | 2.2 µM | 4.2 µM | 3.3 µM | C (>80% EGFR protein remaining after 72 hours of incubation with the test compound at a concentration of 300 nM) | C (>80% EGFR protein remaining after 72 hours of incubation with the test compound at a concentration of 300 nM)
8 | O=C1CCC(N2C(=O)c3cccc(NCCOCCOCCOCCOCCOCC#Cc4cccc5c4C(=O)N([C@@H](C(=O)Nc4nccs4)c4cc(F)ccc4O)C5)c3C2=O)C(=O)N1 (stereo partly drawn) [compound 267] | 30 µM | 1.4 µM | 30 µM | 30 µM | C (>80% EGFR protein remaining after 72 hours of incubation with the test compound at a concentration of 300 nM) | C (>80% EGFR protein remaining after 72 hours of incubation with the test compound at a concentration of 300 nM)
9 | COC1CCN(c2nccc(Nc3cc4c(cn3)nc(COCCOCCN3CCN(CCCCc5ccc6c(c5)C(=O)N(C5CCC(=O)NC5=O)C6=O)CC3)n4C(C)C)n2)CC1 (stereo not drawn) [compound 87] | 15 µM | 3.3 µM | > 30 µM | 14 µM | C (>80% EGFR protein remaining after 72 hours of incubation with the test compound at a concentration of 300 nM) | C (>80% EGFR protein remaining after 72 hours of incubation with the test compound at a concentration of 300 nM)
10 | O=C1CCC(N2C(=O)c3cccc(NCCOCCOCCOCC#Cc4cccc5c4C(=O)N([C@@H](C(=O)Nc4nccs4)c4cc(F)ccc4O)C5)c3C2=O)C(=O)N1 (stereo partly drawn) [compound 265] | 27 µM | 0.29 µM | 3.6 µM | 20 µM | C (>80% EGFR protein remaining after 72 hours of incubation with the test compound at a concentration of 300 nM) | C (>80% EGFR protein remaining after 72 hours of incubation with the test compound at a concentration of 300 nM)
11 | Cc1ncsc1-c1ccc(CNC(=O)[C@@H]2C[C@@H](O)CN2C(=O)[C@@H](NC(=O)COCCOCCOCCOCCOCC#Cc2cccc3c2C(=O)N(C(C(=O)Nc2nccs2)c2cc(F)ccc2O)C3)C(C)(C)C)cc1 (stereo partly drawn) [compound 255] | 0.83 µM | 0.14 µM | 0.58 µM | 4.7 µM | C (>80% EGFR protein remaining after 72 hours of incubation with the test compound at a concentration of 300 nM) | B (≤80% and >50% EGFR protein remaining after 72 hours of incubation with the test compound at a concentration between 300 nM and 10 nM)
12 | Cc1ncsc1-c1ccc(CNC(=O)[C@@H]2C[C@@H](O)CN2C(=O)[C@H](C(C)C)N2Cc3ccccc3C2=O)c(OCCOCCOCCOCCOCC#Cc2cccc3c2C(=O)N([C@@H](C(=O)Nc2nccs2)c2cc(F)ccc2O)C3)c1 [compound 259] | 3.1 µM | 0.55 µM | 2.1 µM | 2.1 µM | C (>80% EGFR protein remaining after 72 hours of incubation with the test compound at a concentration of 300 nM) | C (>80% EGFR protein remaining after 72 hours of incubation with the test compound at a concentration of 300 nM)
